# From publication PMC12948223, “HSP70 Interactome‐Mediated Proteolysis Targeting Chimera (HSP70‐PROTAC) for Ferroptosis‐Driven Cancer Treatment” (Advanced Science, 2025)
# pIC50: −log10 of the molar value.
# What was measured:
# HT1080 cells = assay: Cell viability CCK-8 assay; type: cell-based, human; conditions: Homo sapiens, HT-1080, CCK-8, 48 h, read-out: IC50 (cytotoxicity)
# How it was run: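 HT1080 cells seeded 24 h, then exposed to serial compound dilutions (final DMSO <0.5% v/v) for 48 or 72 h at 37 °C. Viability by CCK-8 absorbance at 450 nm; IC50 from nonlinear regression, ≥3 independent repeats.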
# intracellular LPO = assay: Intracellular LPO (C11-BODIPY 581/591, flow cytometry) in HT1080 cells; type: cell-based, human; conditions: 12 h
# Protocol: The level of LPO was determined by flow cytometry using the C11‐BODIPY^581/591 dye. In short, HT1080 cells were incubated in 6‐well plates at a density of 5 × 10^4 cells per well for 24 h. After that, the culture medium was substituted with a fresh medium containing GDAz‐3, ML162, or a mixture of GDAz‐3 and Fer‐1 at the specified concentrations. Following a 12‐h incubation period, HT1080 cells were stained with C11‐BODIPY^581/591 dye for 10 min. Finally, the cell samples were collected, washed twice with phosphate‐buffered saline (PBS), and then analyzed by flow cytometry.
# GSH = assay: Intracellular GSH in HT1080 cells; type: cell-based, human; conditions: 0.5 and 1 µM, 24 h
# Protocol: HT1080 cells were seeded into 10‐cm‐diameter culture dishes at a density of 2 × 10⁶ cells overnight and then exposed to GDAz‐3 (0.1, 0.5, and 1 µM). Followed by 24‐h incubation, the culture medium was discarded, and the cells were digested with trypsin. The cells were collected and washed with PBS, and threefold of protein removal reagent S was added. Two freeze‐thaw cycles were performed using liquid nitrogen and a 37 °C water bath, followed by a 5‐min ice bath. The samples were centrifuged at 10 000 × g for 10 min at 4 °C. The supernatant was collected and measured according to the instructions of the Total Glutathione Assay Kit (Beyotime Biotechnology, S0052) using a kinetic assay method.
# GPX4 = target: T1, GPX4 (Mus musculus, UniProt O70325); assay: GPX4 degradation by western blot in B16-F10 cells; type: cell-based; conditions: 3 µM, 24 h
# T1 construct: endogenous in cells; host or cells: B16-F10
# T1 sequence (O70325 1-170 isoform O70325-2): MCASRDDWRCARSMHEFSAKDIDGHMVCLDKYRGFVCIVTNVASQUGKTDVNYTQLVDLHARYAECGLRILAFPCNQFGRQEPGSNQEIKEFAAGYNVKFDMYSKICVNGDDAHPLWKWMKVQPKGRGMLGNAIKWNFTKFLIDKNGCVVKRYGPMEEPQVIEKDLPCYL
# Protocol: To further confirm this degradation efficacy, an in‐cell western (ICW) assay, a quantitative immunofluorescence cell‐based technique, was performed to quantify the relative expression level of GPX4 after treatment with GDAz‐3 for 24 h. […] Given the promising GPX4 degradation activity of GDAz‐3, we extended our evaluation to additional ferroptosis‐sensitive cell lines, including triple‐negative breast cancer cells (MDA‐MB‐231) and melanoma cells (mouse B16‐F10). […] Based on the observation that GDAz‐3 was particularly effective in HT1080 cells, we selected this cell line for further degradation mechanism and ferroptosis pharmacodynamics studies.
# Cells were seeded at a density of 4 × 10^5 cells well^−1 in 6‐well plates and allowed to incubate overnight. Cells were incubated with the indicated treatments. Thereafter, the cells were collected and lysed with RIPA buffer containing serine protease and phosphatase inhibitors for 30 min on ice. Proteins were quantified by using a BCA protein assay kit (Beyotime). […] Ultimately, the membrane was washed five times, and the antibody‐protein complexes were visualized using an ECL luminescence reagent (Biosharp, Shanghai, China). The relative intensities of the bands were analyzed by ImageJ and normalized to a loading control.
smiles,measurement,setting,value
"COc1ccc(-c2nc(-c3cc(C(F)(F)F)cc(C(F)(F)F)c3)n(Cc3ccc(C(=O)NCCOCCOCCOCCn4cc(COc5ccc(N(C(=O)CCl)C(C(=O)NCCc6ccccc6)c6cccs6)cc5Cl)nn4)cc3)c2-c2ccc(OC)cc2)cc1 (stereo not shown) [GDAz-3, 4-((2-(3,5-bis(trifluoromethyl)phenyl)-4,5-bis(4-methoxyphenyl)-1H-imidazol-1-yl)methyl)-N-(2-(2-(2-(2-(4-((2-chloro-4-(2-chloro-N-(2-oxo-2-(phenethylamino)-1-(thiophen-2-yl)ethyl)acetamido)phenoxy)methyl)-1H-1,2,3-triazol-1-yl)ethoxy)ethoxy)ethoxy)ethyl)benzamide]",pIC50,HT1080 cells,6.55
same,Fluorescence intensity of C11-BODIPY 581/591 (lipid peroxidation),intracellular LPO,markedly enhanced
same,Level of intracellular GSH,GSH,significantly decreased
same,GPX4 level,GPX4,markedly decreased GPX4 level
